Results as given in patent publication US11602534B2, “Pyrimidine derivative kinase inhibitors” (HEFEI INSTITUTES OF PHYSICAL SCIENCE, CHINESE ACADEMY OF …, priority 2017, dated 2023).

Legend:
[1] = system: BaF3; assay: Proliferation of BaF3 cells, CCK8 cell viability assay; type: cell-based; details: Mus musculus, 72 hours
Procedure, shortened: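 Murine BaF3 lines carry retrovirally transduced human kinase domains fused to an N-terminal TEL fragment (cKIT, PDGFRα or PDGFRβ), and IL-3 is withdrawn so their growth depends on the fused kinase; parental BaF3 serves as the reference line. Living cells were quantified by CCK8 dehydrogenase activity, giving GI50 in μM.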

[2] = system: Tel-cKit/T670I-BaF3; assay: Proliferation of Tel-cKit/T670I-BaF3 cells, CCK8 cell viability assay; type: cell-based; details: Mus musculus, 72 hours, stably expressing cKIT/T670I
Procedure, shortened: (§1)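 Mouse BaF3 ± TEL-kinase fusion (human cKIT/PDGFRα/PDGFRβ kinase region, MSCV-Puro retrovirus, IL-3 removed → kinase-addicted). Viability by CCK8 (dehydrogenase), GI50 μM.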

[3] = system: TEL-PDGFRα-BaF3; assay: Proliferation of TEL-PDGFRα-BaF3 cells, CCK8 cell viability assay; type: cell-based; details: Mus musculus, 72 hours, stably expressing PDGFRα kinase
Procedure, shortened: as §1

[4] = system: human acute myeloid leukemia cell strain MOLM-13; assay: Proliferation of MOLM-13 cells, Cell Titer-Glo; type: cell-based; details: for GI50: Homo sapiens, MOLM-13, 72 hours, Cell Titer-Glo, FLT3/ITD and wild-type FLT3, read-out: GI50 MOLM13
Description: (§2) In addition, in this example the inhibitory activity of preferred compounds (Compound 5 and Compound 135) was tested against the following cell strains: human acute myeloid leukemia cell strain MV4-11 (expressing FLT3/ITD mutant gene), human acute myeloid leukemia cell strain MOLM-13 (expressing FLT3/ITD mutant gene and wild-type FLT3 gene), human acute myeloid leukemia cell strain MOLM-14 (expressing FLT3/ITD mutant gene and wild-type FLT3 gene), human acute myeloid leukemia cell strain OCI-AML-3 (expressing FLT3 A680V mutant gene), human chronic lymphatic leukemia cell strain MEC-1, Chinese hamster lung (CHL) cells, Chinese hamster ovary (CHO) cells, wherein all the cells were purchased from ATCC. In the example the compounds of the present invention were added respectively into the above cells at different concentrations (0.000508 μM, 0.00152 μM, 0.00457 μM, 0.0137 μM, 0.0411 μM, 0.123 μM, 0.370 μM, 1.11 μM, 3.33 μM, 10 μM in DMSO) and the cells were incubated for 72 hours. The number of viable cells was determined by quantification of ATP in living cells using Cell Titer-Glo® (Promega, the USA) Luminescent Cell Viability Assay kit and thereby GI50 was calculated.

[5] = system: human acute myeloid leukemia cell strain MV4-11; assay: Proliferation of MV4-11 cells, Cell Titer-Glo; type: cell-based; details: for GI50: Homo sapiens, MV4-11, 72 hours, Cell Titer-Glo, FLT3/ITD
Description: as §2

[6] = system: human acute myeloid leukemia cell strain OCI-AML-3; assay: Proliferation of OCI-AML-3 cells, Cell Titer-Glo; type: cell-based; details: 72 hours, FLT3 A680V
Description: as §2

[7] = system: poly(ADP-ribose) polymerase (PARP); assay: Cell apoptosis: PARP cleavage by Western Blot in AML cells; type: cell-based, human; details: 1 μM, 24 hours; MOLM-13, MOLM-14, MV-4-11
Excerpt: In human acute myeloid leukemia cells MV4-11 (expressing FLT3/ITD mutant gene) cell strain and human acute myeloid leukemia cells MOLM-13 and MOLM-14 (expressing FLT3/ITD mutant gene and wild-type FLT3 gene) cell strains, the effects of Compound 5 and Compound 135 on protein cleavage of the DNA repairase poly(ADP-ribose) polymerase (PARP) and Caspase (cysteinyl aspartate-specific proteinase) 3 that were closely related to cell apoptosis were examined in cells in order to confirm whether the death of the cells after the administration was caused by apoptosis or necrosis. MOLM-13, MOLM-14, MV-4-11 cell strains were treated with Compound 5, Compound 135 (at different concentrations: 0 μM, 0.1 μM, 0.3 μM, 1 μM, 3 μM in DMSO) and the control compound PKC412 (purchased from MedChem Express) (1 μM in DMSO), respectively, and the cells were collected after 24 hours. Western Blot was used to detect the effects of different concentrations of compounds on protein cleavage of the DNA repairase poly(ADP-ribose) polymerase (PARP) and Caspase (cysteinyl aspartate-specific proteinase) 3.

[8] = system: MV4-11 cells; assay: Nude mouse model harboring subcutaneous MV4-11 tumor; type: in vivo; details: for tumor volume increase: oral gavage; for tumor growth in mice: MV4-11 subcutaneous tumor, daily oral gavage, four weeks
Description: In order to determine the inhibitory effect of Compound 5 and Compound 135 on tumors in vivo, a nude mouse model harboring subcutaneous tumor was introduced. 44 mice (5-week-old) (Balb/c-nu female mice, purchased from Shanghai Snake Experimental Animal Co., Ltd.) were inoculated subcutaneously with MV4-11 cells at 1×10^7 cells/mouse, and the changes in body weight and tumor volume were recorded daily (tumor volume=tumor length×tumor width×tumor width/2). 10 days later, the mice, of which tumor volumes reached 200 mm^3, were randomized into seven groups with 5-9 mice in each group, and were treated as follows: the first group was administered daily by oral gavage with vehicle, i.e., methylcellulose-based aqueous suspension (purchased from Sinopharm Group Chemical Reagent Co., Ltd.); the second, third and the fourth groups were administered daily by oral gavage with 25 mg/kg, 50 mg/kg, 100 mg/kg of Compound 135 in a methylcellulose-based aqueous suspension formulation; the fifth, sixth and seventh groups were administered daily by oral gavage with 25 mg/kg, 50 mg/kg, 100 mg/kg of Compound 5 in a methylcellulose-based aqueous suspension formulation. The first day of administration was recorded as day 0, followed by continuous administration for four weeks (FIGS. 3a-3b).

[9] = system: P210/T315I-BaF3; assay: Proliferation of P210/T315I-BaF3 cells, CCK8 cell viability assay; type: cell-based; details: Mus musculus, 72 hours, stably expressing BCR-ABL/T315I
Procedure, shortened: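 Human kinase-region sequences were PCR-amplified, fused behind N-terminal TEL in MSCV-Puro and stably introduced into mouse BaF3 by retrovirus. IL-3 was then removed to give kinase-dependent lines. Compound effects on these and on parental BaF3 are scored as GI50 (μM) via CCK8 viable-cell quantification.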

| GI50 [1] [nM] | GI50 [2] [nM] | GI50 [3] [nM] | GI50 [4] [nM] | GI50 [5] [nM] | GI50 [6] [nM] | GI50 [9] [nM] | Compound | inhibition of MOLM13 (in words) ([4]; summary of Table 3) | inhibition of MV4-11 (in words) ([5]; summary of Table 3) | cleavage of the DNA repairase poly(ADP-ribose) polymerase (PARP) [7] | tumor volume increase ([8]; 50 mg/kg/day) | tumor volume increase ([8]; 100 mg/kg/day) | tumor growth in mice [8] |
| --- | --- | --- | --- | --- | --- | --- | --- | --- | --- | --- | --- | --- | --- |
| > 10000 | > 10000 | 14 | 267 | 147 | > 10000 |  | CC(=O)Nc1cc(Oc2ccc(NC(=O)Cc3ccc(F)cc3F)cc2)ncn1 [Example 5, N-[4-(6-acetylamino-pyrimidin-4-yloxy)-phenyl]-2-(2,4-difluoro-phenyl)-acetamide] | selectively and strongly inhibited | selectively and strongly inhibited | significant cleavage | slowed significantly | slowed vastly | significantly inhibited |
| > 10000 | > 10000 | 7 | 466 | 284 | > 10000 | > 10000 | CC(=O)Nc1cc(Oc2ccc(NC(=O)Cc3ccccc3C(F)(F)F)cc2)ncn1 [Example 135, N-[4-(6-acetylamino-pyrimidin-4-yloxy)-phenyl]-2-(2-trifluoromethyl-phenyl)-acetamide] |  |  | significant cleavage | slowed significantly | slowed vastly | significantly inhibited |
